ChEMBL document CHEMBL1201862, “PubChem BioAssay data set” (2004)
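The compound was tested at five concentrations on cells cultured in 96-well plates, with a 48-hour exposure period. Abbreviation: GI50, concentration required for 50% inhibition of growth.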 Active and inactive are the calls of the source. No stated cut-off is given here; in the data, active = GI50 up to about 1.1 µM and inactive = higher.

Key:
Experiment in all cases: NCI anticancer screen, dose series, 48 h
M14 = system: M14
EKVX = system: EKVX
ACHN = system: ACHN
A549 = system: A549
KM12 = system: KM12
LOX IMVI = system: LOX IMVI
RXF 393 = system: RXF 393
COLO 205 = system: COLO 205
NCI-H460 = system: NCI-H460
SK-MEL-2 = system: SK-MEL-2
CAKI-1 = system: CAKI-1
OVCAR-5 = system: OVCAR-5
HCT-116 = system: HCT-116
UACC-62 = system: UACC-62
DMS-273 = system: DMS-273
UACC-257 = system: UACC-257
IGROV-1 = system: IGROV-1
DU-145 = system: DU-145
MDA-N = system: MDA-N
Hs-578T = system: Hs-578T

Measured: GI50

C=CCn1c2c(sc1=S)C(S)NC=N2 (stereo not given)
inactive: M14 > 100 µM | EKVX 49.5 µM | ACHN 71.3 µM | A549 69 µM | KM12 > 100 µM | LOX IMVI > 100 µM | RXF 393 > 100 µM | COLO 205 > 100 µM | NCI-H460 > 100 µM | SK-MEL-2 > 100 µM | CAKI-1 > 100 µM | OVCAR-5 > 100 µM | HCT-116 77.3 µM | UACC-62 27.5 µM | DMS-273 > 100 µM | UACC-257 71 µM | IGROV-1 88.5 µM

C=C1C(=O)OC2/C=C(\C=O)CC/C=C(\C)C(O)C[C@@H]12 (stereo not given in full)
inactive: M14 3.36 µM | EKVX 15.6 µM | ACHN 7.35 µM | A549 16.1 µM | KM12 5.77 µM | LOX IMVI 6.18 µM | RXF 393 2.84 µM | COLO 205 3.94 µM | NCI-H460 13.3 µM | SK-MEL-2 10.5 µM | CAKI-1 > 10 µM | OVCAR-5 23.6 µM | HCT-116 1.68 µM | UACC-62 5.87 µM | DMS-273 4.36 µM | UACC-257 5.93 µM | IGROV-1 17.5 µM

COC(=O)c1oc([N+](=O)[O-])c(-c2ccccc2)c1-c1ccccc1
inactive: M14 > 100 µM | EKVX > 100 µM | ACHN > 100 µM | A549 > 100 µM | KM12 > 100 µM | LOX IMVI 35.5 µM | COLO 205 37.7 µM | NCI-H460 > 100 µM | SK-MEL-2 > 100 µM | CAKI-1 > 100 µM | OVCAR-5 > 100 µM | HCT-116 > 100 µM | UACC-62 67 µM | DMS-273 > 100 µM | UACC-257 > 100 µM | IGROV-1 > 100 µM

CC(=O)Nc1ccc(C2C(C(=O)Nc3ccccc3)=C(C)NC(C)=C2C(=O)Nc2ccccc2)cc1
inactive: M14 > 100 µM | EKVX > 100 µM | ACHN > 100 µM | A549 > 100 µM | KM12 > 100 µM | LOX IMVI > 79.6 µM | RXF 393 > 100 µM | COLO 205 > 100 µM | NCI-H460 > 100 µM | SK-MEL-2 > 100 µM | CAKI-1 > 100 µM | OVCAR-5 > 100 µM | HCT-116 > 91 µM | UACC-62 > 80.5 µM | DMS-273 > 100 µM | UACC-257 > 100 µM | IGROV-1 > 100 µM

Cc1cc(=O)oc2c(C)c(OCCCOc3ccc4c(C)cc(=O)oc4c3C)ccc12
inactive: M14 > 100 µM | EKVX > 100 µM | A549 > 100 µM | KM12 > 100 µM | LOX IMVI > 100 µM | NCI-H460 > 100 µM | SK-MEL-2 > 100 µM | CAKI-1 > 100 µM | OVCAR-5 > 100 µM | HCT-116 > 100 µM | UACC-62 > 100 µM | DMS-273 > 100 µM | UACC-257 > 100 µM | IGROV-1 > 100 µM

Clc1ccc2cccc3c2c1C1OC3c2ccccc21 (stereo not given)
inactive: M14 > 100 µM | EKVX > 100 µM | ACHN > 100 µM | A549 > 100 µM | KM12 71.4 µM | LOX IMVI > 100 µM | RXF 393 55.5 µM | COLO 205 > 100 µM | SK-MEL-2 > 100 µM | OVCAR-5 > 100 µM | HCT-116 > 100 µM | UACC-62 > 100 µM | DMS-273 > 100 µM | UACC-257 > 100 µM | IGROV-1 > 100 µM

CC(C)OP(=O)(OC(C)C)/C(=N/Nc1ccc([N+](=O)[O-])cc1)NN
inactive: M14 > 100 µM | EKVX 61.9 µM | ACHN 98.6 µM | A549 75.3 µM | KM12 > 100 µM | LOX IMVI > 100 µM | COLO 205 > 100 µM | NCI-H460 > 100 µM | SK-MEL-2 > 100 µM | CAKI-1 > 100 µM | OVCAR-5 > 100 µM | HCT-116 > 100 µM | UACC-62 34.4 µM | DMS-273 > 100 µM | UACC-257 24.9 µM

CCOC(=O)/C(C(=O)Nc1cccc(Cl)c1)=C(/N)N1CCCC1
inactive: M14 > 100 µM | EKVX > 100 µM | DU-145 > 100 µM | ACHN > 100 µM | A549 > 100 µM | KM12 > 100 µM | LOX IMVI > 100 µM | MDA-N > 100 µM | RXF 393 > 100 µM | COLO 205 > 100 µM | NCI-H460 > 100 µM | SK-MEL-2 > 100 µM | CAKI-1 > 100 µM | OVCAR-5 > 100 µM | HCT-116 > 100 µM | UACC-62 > 100 µM | Hs-578T > 100 µM | UACC-257 > 100 µM | IGROV-1 > 100 µM

N#CCC(=O)N/N=C(\C(=O)Nc1ccc(Cl)c(Cl)c1)C1CN(c2ccccc2)N=C1N (stereo not given)
inactive: M14 > 100 µM | EKVX > 100 µM | ACHN > 100 µM | A549 > 100 µM | KM12 > 100 µM | LOX IMVI > 100 µM | RXF 393 > 100 µM | COLO 205 > 100 µM | NCI-H460 > 100 µM | SK-MEL-2 > 100 µM | OVCAR-5 > 100 µM | HCT-116 > 100 µM | UACC-62 > 100 µM | DMS-273 > 100 µM | UACC-257 > 100 µM | IGROV-1 > 100 µM

CC(=O)NNc1nc(C)c(C(/C=C/c2ccc([N+](=O)[O-])cc2)=N/NC(N)=O)s1
inactive: M14 > 100 µM | EKVX 44.8 µM | DU-145 > 100 µM | ACHN > 100 µM | A549 > 100 µM | KM12 > 100 µM | LOX IMVI > 100 µM | MDA-N > 100 µM | RXF 393 > 100 µM | COLO 205 > 100 µM | NCI-H460 > 100 µM | SK-MEL-2 > 100 µM | CAKI-1 > 100 µM | OVCAR-5 > 100 µM | HCT-116 > 100 µM | UACC-62 > 100 µM | Hs-578T > 100 µM | UACC-257 > 100 µM | IGROV-1 44.8 µM

COc1ccc(N2CN3OC(=O)N(c4ccc(OC)cc4)[C@@]3(c3ccccc3)C2)cc1
inactive: M14 34.4 µM | EKVX 23.2 µM | DU-145 81.5 µM | ACHN 61.9 µM | A549 29 µM | KM12 6.46 µM | LOX IMVI 23 µM | MDA-N 3.29 µM | RXF 393 19.9 µM | COLO 205 13.4 µM | NCI-H460 16.6 µM | SK-MEL-2 5.51 µM | CAKI-1 19.1 µM | OVCAR-5 54.6 µM | HCT-116 18.7 µM | UACC-62 13.6 µM | Hs-578T 37.6 µM | UACC-257 26.5 µM | IGROV-1 20.7 µM

O=S1(=O)OCCOS(=O)(=O)C1(Br)Br
inactive: M14 > 100 µM | EKVX > 100 µM | A549 > 100 µM | KM12 > 100 µM | COLO 205 > 100 µM | SK-MEL-2 > 100 µM | CAKI-1 > 100 µM | HCT-116 > 100 µM | UACC-62 > 100 µM | DMS-273 > 100 µM | UACC-257 > 100 µM
